{"source": "patent US7485688B2", "about": "“Water and oil producing composition” (priority 2004, dated 2009)", "origin": "cited, not measured here", "system": "rats or mice", "settings": "acute oral toxicity in rats or mice"}
{"smiles": "CC(=O)OC(C)(N=NC(C)(OC(C)=O)c1ccccc1)c1ccccc1", "note": "(centres unmarked) [1,1-azobis(1-acetoxy-1-phenylethane)]", "values": [{"measurement": "LD50", "result": "≥ 5000", "unit": "mg/kg"}]}
{"smiles": "N#CC1(N=NC2(C#N)CCCCC2)CCCCC1", "note": "[1,1′-azobis(2-cyclohexane-1-carbonitrile)]", "values": [{"measurement": "LD50", "result": 11800, "unit": "mg/kg"}]}
{"smiles": "CC(C)CC(C)(C#N)N=NC(C)(C#N)CC(C)C", "note": "(centres unmarked) [2,2′-azobis(2,4-dimethylvaleronitrile)]", "values": [{"measurement": "LD50", "result": 6000, "unit": "mg/kg"}]}
{"smiles": "CCC(C)(C#N)N=NC(C)(C#N)CC", "note": "(centres unmarked) [2,2′-azobis-2-methylbutyronitrile]", "values": [{"measurement": "LD50", "result": 1316, "unit": "mg/kg"}]}
{"smiles": "COC(=O)C(C)(C)N=NC(C)(C)C(=O)OC", "note": "[dimethyl 2,2′-azobisisobutyrate]", "values": [{"measurement": "LD50", "result": 2369, "unit": "mg/kg"}]}
